Laboratory results: ChEMBL document CHEMBL4483862, “Open-source discovery of chemical leads for next-generation chemoprotective antimalarials” (2018)

Test system: Plasmodium berghei
Experiment: Luciferase/luciferin-expressing antifolate-resistant parasites were used to infect a culture of HepG2 cells that were pre-incubated with compounds. Infected hepatocytes emit light due to the luciferase reaction. Assay results are presented as the percent inhibition of light emission compared to control. […]
Type: functional
Details: sporozoite; for IC90: read-out: LUCIFERASE INFECTION ASSAY - IC90
[1] = read-out: LUCIFERASE INFECTION ASSAY - IC50

SMILES | IC90 | IC50 [1] | other results
CN(C)CCNC(=O)c1ccc(-c2cn3c(-c4cccs4)cnc3cn2)cc1 | > 8.43 µM |  | IC50 (HEPG2TOX_HILL_SLOPE 7.97, HEPG2TOX_R_SQUARED 0.151, read-out: LUCIFERASE INFECTION ASSAY - IC50): > 8.43 µM
CCC(C)c1ccc(S(=O)(=O)N2CCN(C(C)C(=O)N3c4ccccc4CC3C)CC2)cc1 (configuration not stated) | > 10 µM | > 10 µM | 
CCCCn1nnnc1CSc1nnc(-c2ccccc2F)n1Cc1ccccc1 | > 10 µM | > 10 µM | 
CC(C)CCn1c(Sc2ccc3nnnn3n2)nc2scc(-c3cccs3)c2c1=O | > 10 µM | > 10 µM | 
O=C(OCC(=O)N1CCN(c2ccccc2)CC1)c1cccnc1Nc1cccc(C(F)(F)F)c1 | > 10 µM | > 10 µM | 
Cc1ccc(/N=C/c2c(-c3ccccc3Cl)[nH]c3ccccc23)cc1C | 4.13 µM |  | IC50 (HEPG2TOX_HILL_SLOPE 1.53, HEPG2TOX_R_SQUARED 0.955, PBLUC_HILL_SLOPE 2.45, PBLUC_R_SQUARED 0.607, read-out: LUCIFERASE INFECTION ASSAY - IC50): 1.68 µM
Cc1ccc(CSc2nnc(NCc3ccccc3)s2)cc1 | > 10 µM |  | IC50 (HEPG2TOX_HILL_SLOPE 6.81, HEPG2TOX_R_SQUARED 0.677, read-out: LUCIFERASE INFECTION ASSAY - IC50): > 10 µM
O=C1C=CC(=O)N1c1ccccc1Oc1ccc(Cl)cc1Cl | > 9.88 µM |  | IC50 (PBLUC_HILL_SLOPE 0.641, PBLUC_R_SQUARED 0.0559, read-out: LUCIFERASE INFECTION ASSAY - IC50): > 9.88 µM
Cc1nc2ncnn2c(Nc2cccc(Cl)c2C)c1Cl | > 10.7 µM |  | IC50 (HEPG2TOX_HILL_SLOPE 3, HEPG2TOX_R_SQUARED 0.869, PBLUC_HILL_SLOPE 3.03, PBLUC_R_SQUARED 0.114, read-out: LUCIFERASE INFECTION ASSAY - IC50): 5.55 µM
COc1ccc(-c2nnc(SC(C)C(=O)NC(C)c3ccc(Cl)cc3Cl)[nH]2)cc1 (configuration not stated) | > 10 µM |  | IC50 (PBLUC_HILL_SLOPE 2.09, PBLUC_R_SQUARED 0.0748, read-out: LUCIFERASE INFECTION ASSAY - IC50): 5.53 µM
CC(=O)c1ccccc1OCCOC(=O)/C(C#N)=C/c1cc(C)n(CCC(C)C)c1C | 1.72 µM |  | IC50 (HEPG2TOX_HILL_SLOPE 0.948, HEPG2TOX_R_SQUARED 0.676, PBLUC_HILL_SLOPE 14.8, PBLUC_R_SQUARED 0.615, read-out: LUCIFERASE INFECTION ASSAY - IC50): 1.48 µM
O=C1Nc2ccc([N+](=O)[O-])cc2/C1=N\NC(=O)c1cc2ccccc2cc1O | > 10 µM |  | IC50 (PBLUC_HILL_SLOPE 1.88, PBLUC_R_SQUARED 0.548, read-out: LUCIFERASE INFECTION ASSAY - IC50): 4.86 µM
O=C(Nc1cc(Cl)cc(Cl)c1)Nc1cc(Cl)cc(Cl)c1 | 1.35 µM |  | IC50 (HEPG2TOX_HILL_SLOPE 1.67, HEPG2TOX_R_SQUARED 0.958, PBLUC_HILL_SLOPE 0.797, PBLUC_R_SQUARED 0.657, read-out: LUCIFERASE INFECTION ASSAY - IC50): 0.0855 µM
Cc1nn(-c2ccccc2)c(C)c1C(=O)NCc1cccc(NC(=O)C(C)C)c1 | 7.7 µM |  | IC50 (PBLUC_HILL_SLOPE 6.57, PBLUC_R_SQUARED 0.408, read-out: LUCIFERASE INFECTION ASSAY - IC50): 5.51 µM
CCOC(=O)c1cc(C#N)c(Sc2nnc(SC)s2)nc1C(F)(F)F | > 8.12 µM |  | IC50 (HEPG2TOX_HILL_SLOPE 16.4, HEPG2TOX_R_SQUARED 0.12, PBLUC_HILL_SLOPE 2.78, PBLUC_R_SQUARED 0.452, read-out: LUCIFERASE INFECTION ASSAY - IC50): 4.34 µM
Cc1nnnn1/C(=C\c1ccccc1)C(=O)OCCOc1ccccc1Cl | > 10 µM | > 10 µM | 
COc1ccc(OC)c(NC(=O)C2(C)CCN2Cc2ccc(C(C)C)cc2)c1 (configuration not stated) | > 8.63 µM | > 8.63 µM | 
c1csc(CNc2ccc3ncc(-c4ccc5[nH]ccc5c4)n3n2)c1 | > 9.55 µM |  | IC50 (HEPG2TOX_HILL_SLOPE 1.89, HEPG2TOX_R_SQUARED 0.971, PBLUC_HILL_SLOPE 2.39, PBLUC_R_SQUARED 0.271, read-out: LUCIFERASE INFECTION ASSAY - IC50): 4.86 µM
C/N=c1\scc(-c2ccccc2Br)n1/N=C/c1ccc[nH]1 | > 10 µM |  | IC50 (PBLUC_HILL_SLOPE 15, PBLUC_R_SQUARED 0.188, read-out: LUCIFERASE INFECTION ASSAY - IC50): 9.68 µM
COc1cc(C(=O)Nc2ccc(-c3cn4ccsc4n3)cc2)ccc1OCC(=O)N1CCOCC1 | > 10 µM | > 10 µM | 
O=C(c1cc(-c2cccc3ccccc23)nc2ccccc12)N1CCN(c2ncccn2)CC1 | > 10 µM |  | IC50 (PBLUC_HILL_SLOPE 2.78, PBLUC_R_SQUARED 0.395, read-out: LUCIFERASE INFECTION ASSAY - IC50): 8.3 µM
COc1ccc(CC(N)c2csc(NC(=O)c3cc(C(C)(C)C)nn3Cc3ccccc3)n2)cc1 (configuration not stated) | 5.64 µM |  | IC50 (HEPG2TOX_HILL_SLOPE 1.31, HEPG2TOX_R_SQUARED 0.716, PBLUC_HILL_SLOPE 7.57, PBLUC_R_SQUARED 0.705, read-out: LUCIFERASE INFECTION ASSAY - IC50): 4.22 µM
CN(C)c1cccc(-c2cnc3cnc(-c4ccc(C(=O)NCCO)cc4)cn23)c1 | > 8.22 µM | > 8.22 µM | 

SMILES | IC90 | IC50 [1] | other results
Cc1noc(/C=C/c2cc(C(F)(F)F)cc(C(F)(F)F)c2)c1[N+](=O)[O-] | > 9.01 µM | > 9.01 µM | 
COc1ccc(CCn2nc(C(=O)N(C)C)c3c2CCN(CCCc2ccccc2)C3)cc1 | > 7.39 µM | > 7.39 µM | 
Cc1cccc(-c2cn3c(-c4ccc(C#N)cc4)cnc3cn2)c1C | 8.03 µM |  | IC50 (PBLUC_HILL_SLOPE 3.65, PBLUC_R_SQUARED 0.571, read-out: LUCIFERASE INFECTION ASSAY - IC50): 4.4 µM
CC(C)CN1CCC1(C(=O)Nc1ccncc1)c1ccccc1 (configuration not stated) | 6.57 µM |  | IC50 (HEPG2TOX_HILL_SLOPE 0.888, HEPG2TOX_R_SQUARED 0.951, PBLUC_HILL_SLOPE 1.36, PBLUC_R_SQUARED 0.753, read-out: LUCIFERASE INFECTION ASSAY - IC50): 1.31 µM
Cc1cccc2sc(NC(=O)c3cccc(S(=O)(=O)N4CCc5ccccc54)c3)nc12 | > 10 µM | > 10 µM | 
O=C(c1cn(-c2ccccc2)nc1-c1cc2ccccc2oc1=O)n1nnc2ccccc21 | 3.36 µM | 3.27 µM | 
CCOC(=O)c1c(C)[nH]c(C(=O)CSc2nccn2C)c1C | 0.204 µM |  | IC50 (FFLUC_HILL_SLOPE 13.6, FFLUC_R_SQUARED 0.648, PBLUC_HILL_SLOPE 159, PBLUC_R_SQUARED 0.464, read-out: LUCIFERASE INFECTION ASSAY - IC50): 0.201 µM
Cc1ccc(S(=O)(=O)Nc2ccc(C(=O)/C=C/c3ccc(C(C)(C)C)cc3)cc2)cc1 | > 10 µM | > 10 µM | 
COc1cccc(-c2nc3ccc(NC(=O)CC(C)(C)C)cn3n2)c1 | > 10 µM |  | IC50 (PBLUC_HILL_SLOPE 0.895, PBLUC_R_SQUARED 0.614, read-out: LUCIFERASE INFECTION ASSAY - IC50): 0.974 µM
Cc1cc(C(=O)Cn2cnc3ccccc32)c(C)n1-c1ccccn1 | > 10 µM |  | IC50 (PBLUC_HILL_SLOPE 9.42, PBLUC_R_SQUARED 0.321, read-out: LUCIFERASE INFECTION ASSAY - IC50): 9.29 µM
CCN(CC(=O)NC(C)(C)C)C(=O)c1cc(OC)c(Br)c(OC)c1 | > 10 µM | > 10 µM | 
CCOc1cccc(-c2cn3c(-c4ccc5ncccc5c4)cnc3cn2)c1 | 0.0959 µM |  | IC50 (HEPG2TOX_HILL_SLOPE 1.97, HEPG2TOX_R_SQUARED 0.663, PBLUC_HILL_SLOPE 2.12, PBLUC_R_SQUARED 0.862, read-out: LUCIFERASE INFECTION ASSAY - IC50): 0.0341 µM
O=C(Nc1ccc(F)c(Cl)c1)Nc1csc(Cc2c(Cl)cccc2Cl)n1 | > 7.66 µM |  | IC50 (FFLUC_HILL_SLOPE 16.6, FFLUC_R_SQUARED 0.437, PBLUC_HILL_SLOPE 14.1, PBLUC_R_SQUARED 0.179, read-out: LUCIFERASE INFECTION ASSAY - IC50): 6.61 µM
Cc1onc(-c2ccccc2Cl)c1NC(=O)Nc1cc(C(F)(F)F)cc(C(F)(F)F)c1 | 6.51 µM |  | IC50 (PBLUC_HILL_SLOPE 3.23, PBLUC_R_SQUARED 0.494, read-out: LUCIFERASE INFECTION ASSAY - IC50): 3.3 µM
CC(c1cccnc1)N(C)C(=O)c1cc(NCc2ccc3c(c2)CCO3)cc(S(=O)(=O)N2CCCC2)c1 (configuration not stated) | > 6.34 µM | > 6.34 µM | 
CCN(Cc1ccc2c(c1)OCCO2)C(=O)C1CCN(c2ncnc3sc(C)c(C)c23)CC1 | > 10 µM | > 10 µM | 
COc1cccc(-c2nccc3n[nH]c(-c4cccc(OC(F)(F)F)c4)c23)c1 | > 10 µM |  | IC50 (FFLUC_HILL_SLOPE 1.32, FFLUC_R_SQUARED 0.557, read-out: LUCIFERASE INFECTION ASSAY - IC50): > 10 µM
COc1ccc(N2C(=O)c3ccccc3C(C=NNC(=O)c3ccc(C)cc3)C2=O)cc1OC (configuration not stated) | 5.03 µM |  | IC50 (HEPG2TOX_HILL_SLOPE 8.3, HEPG2TOX_R_SQUARED 0.704, PBLUC_HILL_SLOPE 7.2, PBLUC_R_SQUARED 0.273, read-out: LUCIFERASE INFECTION ASSAY - IC50): 3.7 µM
CC(C)c1nc(-c2c(N)n(Cc3ccccc3)c(=O)n(C)c2=O)sc1C(=O)c1cc(F)ccc1F | > 10 µM | 9.55 µM | 
Cc1cc(CN(Cc2ccc(C(=O)NC3CC3)cc2)Cc2ccco2)no1 | > 10 µM |  | IC50 (PBLUC_HILL_SLOPE 2.47, PBLUC_R_SQUARED 0.284, read-out: LUCIFERASE INFECTION ASSAY - IC50): 5.89 µM
CCC(Sc1nnc(-c2ccccc2F)[nH]1)C(=O)Nc1ccccc1 (configuration not stated) | > 10 µM | > 10 µM | 
Cc1cccc(-c2cn3c(-c4cccc(O)c4)cnc3cn2)c1C | > 10.5 µM |  | IC50 (PBLUC_HILL_SLOPE 4.97, PBLUC_R_SQUARED 0.533, read-out: LUCIFERASE INFECTION ASSAY - IC50): 8.4 µM
Nc1c(C(=O)CN2CCN(C(c3ccc(F)cc3)c3ccc(F)cc3)CC2)c(=O)[nH]c(=O)n1Cc1ccccc1 | > 10 µM | > 10 µM | 
